From patent US11446298B2, “Pyrimidine derivatives” (Idorsia Pharmaceuticals Ltd, priority 2017, dated 2022) come the findings set out here.

Molecules are shown by their SMILES.

Common to all, as to type: cell-based
One assay concerns the target T1, PTGER2 (EP2) (Homo sapiens, UniProt P43116).
T1 construct: host or cells: HEK 293 (PathHunter, stably transfected)
Description: hEP2 b-Arrestin Assay (PathHunter HEK 293 PTGER2 b-arrestin cells, PGE2 5 μM). As to conditions: antagonistic activity, beta-arrestin assay, HEK 293 PTGER2 cells, PGE2 5 μM (EC80); read-out: hEP2 b-arr IC50. As to the method: The antagonistic activities of the compounds of formula (I) on the EP2 and EP4 receptors are also determined in accordance with the following experimental method.
The assay is using the PathHunter™ HEK 293 PTGER2 and PTGER4 b-arrestin cell lines from DiscoverX. The system is based on the Enzyme Fragment Complementation Technology. Two complementing fragments of the b-galactosidase enzyme are expressed within stably transfected cells. The larger portion of b-gal, termed EA for Enzyme Acceptor, is fused to the C-terminus of b-arrestin 2. The smaller fragment, termed ProLink™ tag, is fused to PTGER2 (EP2) or PTRGER4 (EP4) at the C-terminus. Upon activation, b-arrestin is recruited which forces the interaction of ProLink and EA, allowing complementation of the two fragments of b-gal and the formation of a functional enzyme which is capable of hydrolysing the substrate and generating a chemiluminescent signal.
The HEK 293 PTGER2 b-arrestin cells (DiscoverX 93-021-4C1) are detached from culture dishes with a cell dissociation buffer (Invitrogen, 13151-014), and collected in growing medium (GM: DMEM+Glutamax-I (Invitrogen 32430)/10% FCS, 1% Penicilin/streptomycin). 5000 cells per well of a 384 well plate (white with white bottom Greiner 781080) are seeded in 20 μl per well of GM. Plate is incubated at 37° C., 5% CO2 for 24 hours.
Stock solutions of test compounds are made at a concentration of 10 mM in DMSO, and serially diluted in DMSO to concentrations required for inhibition dose response curves (tested concentration range 10 μM-2 nM or 1 μM-0.2 nM).
PGE2 (Cayman 14010, stock solution: 10 mM in DMSO) is used as agonist at 5 μM final concentration, corresponding to EC80.
Five microliters of diluted compounds are transferred into the assay plate. Plate is pre-incubated 15 minutes at 37° C. Then five microliters of PGE2 (final conc. 5 μM) are transferred into the assay plate. Plate is incubated 120 minutes at 37° C.
PathHunter Glo Detection Kit components are thawed and mix according to manufacturer's instructions: 1 part Galacton Star Substrate with 5 parts Emerald II™ Solution, and 19 parts of PathHunter Cell Assay Buffer, respectively. Twelve μl of reagent are transferred to the assay plate and incubate for 1 hour at room temperature in the dark. Luminescence counts are read on a BMG Fluostar Optima reader according to manufacturer's instructions.
For each compound concentration calculate of the percentage of activity compared to DMSO control value as average ±STDEV. (each concentration is measured in duplicate)
IC50 values and curves are generated with XLfit software (IDBS) using Dose-Response One Site model 203. When compounds were measured multiple times, mean values are given.

The target of the next assay is T2, EP4 (Homo sapiens, UniProt P35408).
T2 construct: BT549 breast cancer cells, express high endogenous EP4 levels and very low EP2 levels; host or cells: BT549 breast cancer cells
As to the kind of experiment: hEP4 cAMP Assay (BT549 breast cancer cells, HTRF cAMP, PGE2 6 nM). As to conditions: antagonistic activity, PGE2 6 nM (EC80). Put shortly: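 BT549 cells (endogenous EP4, very low EP2) in HBSS/20 mM HEPES/0.2% BSA/2 mM IBMX, pre-incubated 45 min RT with compound, then stimulated 30 min RT with PGE2 6 nM (EC80). cAMP read by HTRF competitive immunoassay (665/620 nm), converted via calibrator to % of DMSO control; IC50 from duplicate dose-response curves.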

For another assay, the target named is T3, EP2 (Homo sapiens, UniProt P43116).
T3 construct: SF295 glioblastoma cells express high endogenous EP2 and no EP4; host or cells: SF295 glioblastoma cells
As to the kind of experiment: hEP2 cAMP Assay (SF295 glioblastoma cells, HTRF cAMP, PGE2 75 nM). To be noted: antagonistic activity, PGE2 75 nM (EC80). The method in brief: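 IC50 values derive from duplicate-point curves of percent cAMP relative to DMSO, read by HTRF (665/620 nm) against a cAMP calibrator. Compounds (30 μM to 0.01 nM ranges) were given 45 min at room temperature before 30 min with 75 nM PGE2, in EP2-only SF295 cells with 2 mM IBMX.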

T3 sequence (P43116 whole entry): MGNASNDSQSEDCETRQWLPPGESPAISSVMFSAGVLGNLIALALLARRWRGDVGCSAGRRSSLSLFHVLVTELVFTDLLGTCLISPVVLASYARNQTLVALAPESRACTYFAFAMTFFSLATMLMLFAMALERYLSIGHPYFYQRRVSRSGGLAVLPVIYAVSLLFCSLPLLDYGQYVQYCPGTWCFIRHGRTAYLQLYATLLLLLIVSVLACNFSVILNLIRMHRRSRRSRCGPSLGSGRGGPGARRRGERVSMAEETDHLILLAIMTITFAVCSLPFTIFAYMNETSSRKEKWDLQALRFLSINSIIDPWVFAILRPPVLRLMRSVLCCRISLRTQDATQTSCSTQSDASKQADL
T1 sequence (P43116 whole entry): as above
T2 sequence (P35408 whole entry): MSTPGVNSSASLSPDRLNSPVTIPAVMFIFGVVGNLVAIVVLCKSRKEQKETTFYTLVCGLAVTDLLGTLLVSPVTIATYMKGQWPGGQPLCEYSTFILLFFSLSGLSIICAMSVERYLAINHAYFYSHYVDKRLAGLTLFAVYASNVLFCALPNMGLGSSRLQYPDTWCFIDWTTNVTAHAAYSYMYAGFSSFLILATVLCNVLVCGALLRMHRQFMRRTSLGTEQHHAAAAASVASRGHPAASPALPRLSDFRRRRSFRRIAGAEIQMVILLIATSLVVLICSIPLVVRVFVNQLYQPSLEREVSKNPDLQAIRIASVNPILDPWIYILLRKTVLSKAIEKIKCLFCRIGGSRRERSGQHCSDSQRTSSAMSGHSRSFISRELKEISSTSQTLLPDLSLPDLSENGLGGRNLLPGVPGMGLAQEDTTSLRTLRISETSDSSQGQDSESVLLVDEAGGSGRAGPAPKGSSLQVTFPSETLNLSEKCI

In the case of `CCOc1cc(-c2cc(NCCc3cccc4cc(C)n(C)c34)ncn2)sc1C(=O)O` [Example 56, 5-{6-[2-(1,2-Dimethyl-1H-indol-7-yl)-ethylamino]-pyrimidin-4-yl}-3-ethoxy-thiophene-2-carboxylic acid], the figures for the IC50 at PTGER2 (EP2), against EP4 and against EP2 were 53 nM, 292 nM and 52 nM, respectively.

On to `O=C(O)c1ccc(-c2cc(NCCc3ccc(F)c4ccccc34)ncn2)cc1OC1CCC1` [Example 20, 2-Cyclobutoxy-4-{6-[2-(4-fluoro-naphthalen-1-yl)-ethylamino]-pyrimidin-4-yl}-benzoic acid], for which the half-maximal inhibitory concentration (IC50) on PTGER2 (EP2) amounted to 73 nM; on EP4 it was 680 nM; on EP2 it was 199 nM.

With `Cc1ccc2c(cnn2C)c1CCNc1cc(-c2ccc3ncccc3c2)ncn1` [Example 114, [2-(1,5-Dimethyl-1H-indazol-4-yl)-ethyl]-(6-quinolin-6-yl-pyrimidin-4-yl)-amine], the IC50 on PTGER2 (EP2) was 224 nM; at EP4, 492 nM; against EP2 it was 35 nM.

Turning to `CCOc1cc(-c2cc(NCCc3c(OC)ccc4ccccc34)ncn2)ccc1C(=O)O` [Example 3, 2-Ethoxy-4-{6-[2-(2-methoxy-naphthalen-1-yl)-ethylamino]-pyrimidin-4-yl}-benzoic acid], the IC50 on PTGER2 (EP2) turned out to be 17 nM; against EP4, 292 nM; against EP2 it was 11 nM.

Take `CCOc1cc(-c2cc(NCCc3c(OC)ccc4ncccc34)ncn2)ccc1O` [Example 90, 2-Ethoxy-4-{6-[2-(6-methoxy-quinolin-5-yl)-ethylamino]-pyrimidin-4-yl}-phenol]: the results for the IC50 at PTGER2 (EP2), at EP4 and against EP2 were 36 nM, 351 nM and 58 nM, respectively.

For the compound `COc1ccc2c(C)ccnc2c1CCNc1cc(-c2ccc(C(=O)O)c(OC3CCC3)c2)ncn1` [Example 87, 2-Cyclobutoxy-4-{6-[2-(7-methoxy-4-methyl-quinolin-8-yl)-ethylamino]-pyrimidin-4-(C)yl}-benzoic acid], the IC50 at PTGER2 (EP2) came to 70 nM; against EP4, 850 nM; on EP2 it was 103 nM.

As for `CCOc1cc(-c2cc(NCCc3cccc4cc(C)[nH]c34)ncn2)sc1C(=O)O` [Example 37, 3-Ethoxy-5-{6-[2-(2-methyl-1H-indol-7-yl)-ethylamino]-pyrimidin-4-yl}-thiophene-2-carboxylic acid], the half-maximal inhibitory concentration (IC50) came out at 126 nM on PTGER2 (EP2), 596 nM against EP4 and 53 nM against EP2.

In the case of `CCOc1cc(-c2cc(NCCc3cccc4c3ccn4C)ncn2)ccc1OCC(=O)O` [Example 49, (2-Ethoxy-4-{6-[2-(1-methyl-1H-indol-4-yl)-ethylamino]-pyrimidin-4-yl}-phenoxy)-acetic acid], the IC50 was 108 nM on PTGER2 (EP2), 458 nM against EP4 and 160 nM against EP2.

As for `COc1ccc2ccccc2c1CCNc1cc(-c2cc3cc(C(=O)O)ccc3[nH]2)ncn1` [Example 130, 2-{6-[2-(2-Methoxy-naphthalen-1-yl)-ethylamino]-pyrimidin-4-yl}-1H-indole-5-carboxylic acid], the IC50 on PTGER2 (EP2) was 13 nM; against EP4, 546 nM; at EP2, 27 nM.

On to `CCOc1cc(-c2cc(NCCc3c(OC)ccc4ncccc34)ncn2)ccc1OCC(=O)O` [Example 66, (2-Ethoxy-4-{6-[2-(6-methoxy-quinolin-5-yl)-ethylamino]-pyrimidin-4-yl}-phenoxy)-acetic acid], for which the values for the IC50 at PTGER2 (EP2), on EP4 and against EP2 were 350 nM, 714 nM and 227 nM, respectively.

As for `O=C(O)c1ccc(-c2cc(NCCc3cccc4ccccc34)ncn2)cc1OC1CCC1` [Example 8, 2-Cyclobutoxy-4-[6-(2-naphthalen-1-yl-ethylamino)-pyrimidin-4-yl]-benzoic acid], the IC50 on PTGER2 (EP2) was 71 nM; against EP4, 568 nM; at EP2, 133 nM.

Take `CCOc1cc(-c2cc(NCCc3cccc4ccsc34)ncn2)ccc1C(=O)O` [Example 101, 4-[6-(2-Benzo[b]thiophen-7-yl-ethylamino)-pyrimidin-4-yl]-2-ethoxy-benzoic acid]: the values for the IC50 at PTGER2 (EP2), at EP4 and on EP2 were 128 nM, 619 nM and 129 nM, respectively.

Take `O=C(O)c1ccc(-c2cc(NCCc3ccc(Cl)c4ccccc34)ncn2)cc1OC1CCC1` [Example 61, 4-{6-[2-(4-Chloro-naphthalen-1-yl)-ethylamino]-pyrimidin-4-yl}-2-cyclobutoxy-benzoic acid]: the IC50 at PTGER2 (EP2) worked out at 113 nM; against EP4, 745 nM; at EP2, 183 nM.

For `COc1ccc2ncccc2c1CCNc1cc(-c2ccc(-c3c(O)c(=O)c3=O)cc2)ncn1` [Example 91, 3-Hydroxy-4-(4-{6-[2-(6-methoxy-quinolin-5-yl)-ethylamino]-pyrimidin-4-yl}-phenyl)-cyclobut-3-ene-1,2-dione], the IC50 on PTGER2 (EP2) came to 146 nM; against EP4, 818 nM; against EP2, 228 nM.

Turning to `COc1ccc2ncccc2c1CCNc1cc(-c2ccnc(N3CCCCC3)c2)ncn1` [Example 112, [2-(6-Methoxy-quinolin-5-yl)-ethyl]-[6-(3,4,5,6-tetrahydro-2H-[1,2′]bipyridinyl-4′-yl)-pyrimidin-4-yl]amine], the values for the IC50 at PTGER2 (EP2), at EP4 and against EP2 were 190 nM, 685 nM and 210 nM, respectively.

Regarding `COc1ccc2ncccc2c1CCNc1cc(-c2ccc(-c3nnc(N)s3)cc2)ncn1` [Example 113, {6-[4-(5-Amino-[1,3,4]thiadiazol-2-yl)-phenyl]-pyrimidin-4-yl}-[2-(6-methoxy-quiolin-5-yl)-ethyl]-amine], the IC50 at PTGER2 (EP2) came to 47 nM; against EP4 it was 459 nM; at EP2, 27 nM.

Turning to `CCOc1cc(-c2cc(NCCc3c(OC)ccc4ccccc34)ncn2)ccc1OCC(=O)O` [Example 47, (2-Ethoxy-4-{6-[2-(2-methoxy-naphthalen-1-yl)-ethylamino]-pyrimidin-4-yl}-phenoxy)-acetic acid], the IC50 was found to be 45 nM at PTGER2 (EP2), 654 nM against EP4 and 123 nM at EP2.

For `COc1ccc2ccccc2c1CCNc1cc(-c2cc3ccc(C(=O)O)cc3[nH]2)ncn1` [Example 127, 2-{6-[2-(2-Methoxy-naphthalen-1-yl)-ethylamino]-pyrimidin-4-yl}-1H-indole-6-carboxylic acid], the IC50 worked out at 9 nM at PTGER2 (EP2), 416 nM against EP4 and 20 nM against EP2.

As for `O=C(O)c1ccc(-c2cc(NCCc3cccc4ccsc34)ncn2)cc1OC1CCC1` [Example 102, 4-[6-(2-Benzo[b]thiophen-7-yl-ethylamino)-pyrimidin-4-yl]-2-cyclobutoxy-benzoic acid], the half-maximal inhibitory concentration (IC50) at PTGER2 (EP2) is 145 nM; against EP4 it was 263 nM; against EP2, 224 nM.

As for `COc1ccc2ccccc2c1CCNc1cc(-c2cc3c(C(=O)O)cccc3[nH]2)ncn1` [Example 129, 2-{6-[2-(2-Methoxy-naphthalen-1-yl)-ethylamino]-pyrimidin-4-yl}-1H-indole-4-carboxylic acid], the IC50 at PTGER2 (EP2) came to 87 nM; against EP4, 289 nM; at EP2, 15 nM.

Regarding `COc1ccc2ncccc2c1CCNc1cc(-c2ccc(-c3cc(O)no3)cc2)ncn1` [Example 83, 5-(4-{6-[2-(6-Methoxy-quinolin-5-yl)-ethylamino]-pyrimidin-4-yl}-phenyl)-isoxazol-3-ol], the values for the IC50 at PTGER2 (EP2), against EP4 and against EP2 were 119 nM, 428 nM and 89 nM, respectively.
